Patent US10131606B2, “Tetrarylmethane ethers” (Rohm and Haas Company, priority 2014, dated 2018)

Row | melting point | Structure (SMILES)
1 | 103 to 105 °C | CCCCCCCOc1ccc(C(c2ccccc2)(c2ccccc2)c2ccc(OCCCCCCC)cc2)cc1 [BHeptTPM, Bis(4-(heptyloxy)phenyl)diphenylmethane]
2 | 120 to 122 °C | CCCCCCOc1ccc(C(c2ccccc2)(c2ccccc2)c2ccc(OCCCCCC)cc2)cc1 [BHexTPM]
3 | 84.5 to 86.5 °C | CCCCCCCCOc1ccc(C(c2ccccc2)(c2ccccc2)c2ccc(OCCCCCCCC)cc2)cc1 [BOctTPM, Bis(4-(octyloxy)phenyl)diphenylmethane]
4 | 110 to 113 °C | CCCCCOc1ccc(C(c2ccccc2)(c2ccccc2)c2ccc(OCCCCC)cc2)cc1 [BPentTPM, Bis(4-(pentyloxy)phenyl)diphenylmethane]
